Experimental findings from EP4800013A1, “PARG INHIBITOR” (Shanghai Qilu Pharmaceutical Research and Development …, priority 2023, dated 2025) are described below.

In one data set the target is T1, PARG (Homo sapiens, UniProt Q86W56).
T1 construct: made in house
As to the kind of experiment: Enzymatic inhibitory activity against PARG, HTRF assay. Type of data set: biochemical. The settings on record: HTRF; PARylated PARP1 protein as substrate; 60 minutes at room temperature; read-out: IC50 against PARG enzyme. An outline of the steps:
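Purified PARG pre-incubated with compounds (top 10 µM, 3- to 5-fold dilutions, duplicates) 15 min at room temperature, then PARylated PARP1 substrate added for 60 min in Tris pH 7.4 buffer with DTT, EDTA/EGTA, KCl. HTRF (His-Tb/SA-XL665) read-out; IC50 by four-parameter logistic fit, normalised to DMSO and control-inhibitor wells.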
(In general: In TR-FRET formats the signal depends on donor and acceptor labels being close together.)

The nature of data set [1]: Pharmacokinetic evaluation in BALB/c nude mice (PO). The format is in vivo. Particulars: female, mouse, plasma, 30 mg/kg. The method, then:
Using mice as test animals, the compounds of the present disclosure were administered via intravenous bolus and oral injection. Plasma samples were collected at specific time points. Compound concentrations in plasma were determined by LC-MS/MS, and PK parameters were calculated to characterize the pharmacokinetic behavior of the compounds of the present disclosure in plasma.
BALB/c nude mice, female, supplied by Jiangsu GemPharmatech Co., Ltd.
Dosing regimen for BALB/c nude mice: The PO (oral) experimental group consisted of 3 mice, which were administered at a dose of 30 mg/kg and a volume of 10 mL/kg. The dosing vehicle was 5% (v/v) DMSO/10% (v/v) Solutol/85% (v/v) saline.
Following administration, 0.025 mL of blood was collected via venipuncture at the following time points: 0.0833 (IV), 0.25, 0.5, 1, 2, 4, 8, and 24 hours. Blood samples were collected into EDTA-K2 tubes and centrifuged at 4°C and 2000 g for 10 minutes to separate plasma, which was stored at -80°C.
Mouse plasma processing: • 1) 15 µL of plasma was mixed with 200 µL of acetonitrile for protein precipitation. The mixture was vortexed and centrifuged for 15 minutes. • 2) The supernatant after processing was diluted with water and analyzed by LC/MS/MS to determine the concentration of the test compound.
Pharmacokinetic parameters were calculated using WinNonlin 6.1. Specifically, Cmax represents maximum plasma concentration, CL represents clearance, Vss represents volume of distribution at steady state, T1/2 represents terminal elimination half-life, MRTInf represents mean residence time, AUC represents area under the plasma concentration-time curve, and F represents bioavailability. Table 18: Pharmacokinetic parameters of the compounds of the present disclosure in CD-1 mice

SMILES strings stand for the structures.

T1 sequence (Q86W56 whole entry): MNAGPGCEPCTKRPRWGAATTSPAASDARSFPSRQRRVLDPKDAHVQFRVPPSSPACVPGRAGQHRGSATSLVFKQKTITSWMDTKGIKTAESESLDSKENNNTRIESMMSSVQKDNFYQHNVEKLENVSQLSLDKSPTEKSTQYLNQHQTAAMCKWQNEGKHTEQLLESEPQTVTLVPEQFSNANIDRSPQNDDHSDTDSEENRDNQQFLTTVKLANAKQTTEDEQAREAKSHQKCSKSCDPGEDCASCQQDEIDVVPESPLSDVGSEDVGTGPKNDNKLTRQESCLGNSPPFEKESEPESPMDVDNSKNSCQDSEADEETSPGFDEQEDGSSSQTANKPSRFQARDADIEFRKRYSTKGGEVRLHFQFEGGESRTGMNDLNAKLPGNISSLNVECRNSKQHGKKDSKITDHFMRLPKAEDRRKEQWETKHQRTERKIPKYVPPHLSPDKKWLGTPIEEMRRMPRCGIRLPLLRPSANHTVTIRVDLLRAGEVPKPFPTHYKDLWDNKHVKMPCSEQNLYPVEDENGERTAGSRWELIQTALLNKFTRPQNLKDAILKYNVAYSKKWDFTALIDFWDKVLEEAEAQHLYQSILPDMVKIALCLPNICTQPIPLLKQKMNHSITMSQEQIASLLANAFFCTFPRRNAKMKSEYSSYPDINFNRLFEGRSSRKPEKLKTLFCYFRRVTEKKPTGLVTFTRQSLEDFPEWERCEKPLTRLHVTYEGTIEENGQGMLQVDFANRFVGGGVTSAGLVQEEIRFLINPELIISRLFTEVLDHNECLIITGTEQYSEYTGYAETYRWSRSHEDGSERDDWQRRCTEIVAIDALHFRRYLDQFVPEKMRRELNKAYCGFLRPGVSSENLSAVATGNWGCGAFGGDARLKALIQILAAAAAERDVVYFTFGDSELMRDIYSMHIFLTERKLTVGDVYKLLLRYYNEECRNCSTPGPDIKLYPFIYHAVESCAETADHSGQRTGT

In general, IC50 refers to the concentration needed to halve the response being measured. The term AUC denotes concentration integrated over time. Lower therefore signals less exposure. As a reminder, the Cmax is the highest concentration seen after dosing. One may read the MRT inf as the average time that molecules of a dose stay in the body. By half-life is commonly meant the time in which the quantity being followed falls by half. Lower therefore signals fast loss. As to `CCc1nc2n(-c3nnc(C(F)F)s3)c3cc(S(=O)(=O)NC4(C)CC4)cc(N4C[C@H](C)N[C@@H](C)C4)c3n2n1` [Compound 065R], the IC50 on PARG was 400 pM. In data set [1], this molecule gave an AUC of 9.52 µM·h, a Cmax of 1620 nM, an MRT inf of 4.39 h and a half-life of 2.62 h.

As for `C[C@H]1CN(c2cc(S(=O)(=O)NC3(C)CC3)cc3c2n2nc(C(F)F)nc2n3-c2nnc(C(F)F)s2)C[C@H](C)N1` [Compound 065S], the IC50 at PARG worked out at 1400 pM. Besides, in data set [1], the AUC came to 9.21 µM·h, the highest level (Cmax) was 1340 nM, the MRT inf was 4.8 h and the half-life was 2.69 h.

As to `C[C@H]1CN(c2cc(S(=O)(=O)NC3(C)CC3)cc3c2n2nc(C(F)(F)F)nc2n3-c2nnc(C(F)F)s2)C[C@H](C)N1` [Compound 065W], at PARG, the IC50 stood at 800 pM. In data set [1], this molecule had an AUC of 16.4 µM·h, a Cmax of 1340 nM, an MRT inf of 7.74 h and a half-life of 5.28 h.
